According to patent US9540359B2, “Dihydrooxazine or oxazepine derivatives having BACE1 inhibitory activity” (Shionogi & Co., Ltd., priority 2012, dated 2017):
Where two headings read alike, the source gives them in different places.

Columns and labels:
Recombinant human BACE1 = Recombinant human BACE1 (Homo sapiens (Human), UniProt P56817); test: Assay of BACE1 inhibiting activity (HTRF, substrate peptide cleavage); format: biochemical; conditions: 30° C., 3.5 hours, pH 5.0
Experimental: 48.5 μL of substrate peptide solution (Biotin-[…]-Eu: X=ε-amino-n-capronic acid, Eu=Europium cryptate) was added to each well of 96-hole half-area plate (a black plate: Costar), and after addition of 0.5 μl of the compound of the present invention (DMSO solution) and 1 μl of Recombinant human BACE1 (R&D Systems), the reaction mixture was incubated at 30° C. for 3.5 hours. […] The final concentrations of the substrate peptide and Recombinant human BACE1 were adjusted to 18 nmol/L and 7.4 nmol/L, respectively, and the reaction was performed in sodium acetate buffer (50 mmol/L sodium acetate, pH 5.0, 0.008% Triton X-100). After the incubation for reaction, 50 μl of 8.0 μg/ml Streptavidin-XL665 (CIS bio international) dissolved in phosphate buffer (150 mmol/L K2HPO4-KH2PO4, pH 7.0, 0.008% Triton X-100, 0.8 mol/L KF) was added to each well and left stand at 30° C. for 45 minutes. After then, fluorescence intensity was measured (excitation wavelength: 320 nm, measuring wavelength: 620 nm and 665 nm) using Wallac 1420 multilabel counter (Perkin Elmer life sciences). Enzymatic activity was determined from counting ratio of each wavelength (10,000× Count 665/Count 620) and 50% inhibitory concentration against the enzymatic activity (IC50) was calculated.

[1] = test system: β-Amyloid (Aβ) production in neuroblastoma SH-SY5Y cells (SH/APPwt); test: Measurement of β-amyloid (Aβ) production inhibitory effect in cell; format: cell-based; conditions: Homo sapiens, amount needed to inhibit Aβ production by 50%, Amyloid β1-40 in culture supernatant, 24 hours
Experimental: Neuroblastoma SH-SY5Y cells (SH/APPwt) with human wild-type β-APP excessively expressed therein were prepared at 8×10^5 cells/mL, and 150 μl portions thereof were inoculated into each well of a 96-well culture plate (Falcon). The cells were cultured for 2 hours at 37° C. in a 5% gaseous carbon dioxide incubator. Then, a solution which have been preliminarily prepared by adding and suspending the compound of the present invention (DMSO (dimethyl sulfoxide) solution) so as to be 2 μl/50 μl medium was added to the cell sap. Namely, the final DMSO concentration was 1%, and the amount of the cell culture was 200 μl. After the incubation was performed for 24 hours from the addition of the test compound, 100 μl of the culture supernatant was collected from each fraction. The amount of the Aβ in each fraction was measured. The Aβ amount was measured as follows. 10 μl of a homogeneous time resolved fluorescence (HTRF) measurement reagent (Amyloid β1-40 peptide; CIS bio international) and 10 μl of the culture supernatant were put into a 384-well half area microplate (black microplate, Costar) and mixed with each other, and then left standing overnight at 4° C. while the light was shielded. Then, the fluorescence intensity (excitation wavelength: 337 nm, measurement wavelength: 620 nm and 665 nm) was measured with a micro plate reader (Artemis K-101; FURUNO […]). […]

[2] = 50% inhibitory concentration against enzymatic activity, read-out: IC50 value
[3] = bound stated for a list of compounds, read-out: IC50 values

Chain of Recombinant human BACE1 (P56817 46-501): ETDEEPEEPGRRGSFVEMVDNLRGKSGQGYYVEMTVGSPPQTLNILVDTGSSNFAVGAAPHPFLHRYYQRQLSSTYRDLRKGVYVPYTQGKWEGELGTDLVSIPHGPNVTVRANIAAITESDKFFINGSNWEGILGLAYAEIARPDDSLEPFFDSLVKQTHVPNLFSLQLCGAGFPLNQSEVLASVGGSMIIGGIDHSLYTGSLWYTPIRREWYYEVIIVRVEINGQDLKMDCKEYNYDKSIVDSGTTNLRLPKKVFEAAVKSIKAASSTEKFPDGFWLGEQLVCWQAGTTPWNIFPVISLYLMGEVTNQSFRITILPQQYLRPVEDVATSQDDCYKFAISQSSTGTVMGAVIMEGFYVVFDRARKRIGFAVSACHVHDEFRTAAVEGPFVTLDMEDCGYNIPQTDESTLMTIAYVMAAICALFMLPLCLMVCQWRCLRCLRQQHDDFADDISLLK

IC50 (Recombinant human BACE1; [2])	IC50 (Recombinant human BACE1; [3])	SMILES	other results
77.3 nM	–	CC12OC(N)=N[C@](CF)(c3cc(NC(=O)c4ccc(C#N)cn4)ccc3F)C1O2 (some centres unmarked) [Compound I-2]	–
–	≤ 1000 nM	CO[C@H]1[C@@H](C(F)F)OC(N)=N[C@]1(C)c1cc(NC(=O)c2ccc(F)cn2)ccc1F [Compound I-119]	–
90.2 nM	–	Cc1cc(C#N)cnc1C(=O)Nc1ccc(F)c([C@]2(C(F)F)CCOC(N)=N2)c1 [Compound I-4]	–
–	≤ 1000 nM	NC1=N[C@@](c2cc(NC(=O)c3cnc(OCF)cn3)ccc2F)(C(F)F)CCCO1 [Compound I-47]	–
96.8 nM	–	C#C[C@@]1(c2cc(NC(=O)c3ccc(C#N)cn3)ccc2F)CCOC(N)=N1 [Compound I-14]	–
–	≤ 1000 nM	CO[C@H]1[C@@H](C(F)F)OC(N)=N[C@]1(C)c1cc(NC(=O)c2ccc(C#N)cn2)ccc1F [Compound I-116]	–
–	≤ 1000 nM	C#C[C@]1(c2cc(NC(=O)c3coc(C(F)F)n3)ccc2F)N=C(N)O[C@@H]2COC[C@@H]21 [Compound I-73]	–
153 nM	–	C[C@@]1(c2cc(NC(=O)c3ccc(C#N)cn3)ccc2F)CCCOC(N)=N1 [Compound I-13]	–
–	≤ 1000 nM	C[C@]1(c2cc(NC(=O)c3coc(CF)n3)ccc2F)N=C(N)O[C@H](CF)[C@@H]1F [Compound I-85]	–
–	–	N#Cc1ccc(C(=O)Nc2ccc(F)c([C@]3(C(F)(F)F)CCOC(N)=N3)c2)nc1 [Compound I-38]	IC50 [1]: 509 nM
–	≤ 1000 nM	N#Cc1ccc(C(=O)Nc2ccc(F)c([C@]34CCO[C@H]3COC(N)=N4)c2)nc1 [Compound I-108]	–
13.6 nM	–	C#C[C@]1(c2cc(NC(=O)c3cnc(OCF)cn3)ccc2F)N=C(N)O[C@@H]2COC[C@@H]21 [Compound I-72]	–
–	≤ 1000 nM	CO[C@H]1[C@@H](C(F)F)OC(N)=N[C@]1(C)c1cc(NC(=O)c2cnc(OCF)cn2)ccc1F [Compound I-118]	–
20.7 nM	–	C[C@]1(c2cc(NC(=O)c3ccc(C#N)cn3)ccc2F)N=C(N)OC2(COC2)[C@@H]1F [Compound I-95]	–
–	≤ 1000 nM	N#Cc1ccc(C(=O)Nc2ccc(F)c([C@]34CCO[C@H]3[C@@H](CF)OC(N)=N4)c2)nc1 [Compound I-110]	–
–	≤ 1000 nM	COC[C@@H]1C[C@@](CF)(c2cc(NC(=O)c3ccc(C#N)cn3)ccc2F)N=C(N)O1 [Compound I-37]	–
65.4 nM	–	C#C[C@]1(c2cc(NC(=O)c3ccc(C#N)cn3)ccc2F)N=C(N)O[C@@H]2C[C@@H]21 [Compound I-21]	–
–	≤ 1000 nM	NC1=N[C@@]2(c3cc(NC(=O)c4cnc(OCF)cn4)ccc3F)CCO[C@H]2[C@@H](CF)O1 [Compound I-111]	–
94.2 nM	–	CC1(C)C[C@@](C)(c2cc(NC(=O)c3ccc(C#N)cn3)ccc2F)N=C(N)O1 [Compound I-1]	–
32.9 nM	–	C[C@]1(c2cc(NC(=O)c3coc(C(F)F)n3)ccc2F)N=C(N)O[C@H](CF)[C@@H]1F [Compound I-86]	–
25 nM	–	C[C@@]1(c2cc(NC(=O)c3ccc(C#N)cn3)ccc2F)CC2(COC2)OC(N)=N1 [Compound I-56]	–
113 nM	–	C[C@H]1OC(N)=N[C@](CF)(c2cc(NC(=O)c3ccc(C#N)cn3)ccc2F)[C@H]1CF [Compound I-100]	–
–	≤ 1000 nM	Cc1cc(C#N)cnc1C(=O)Nc1ccc(F)c([C@@]2(C)N=C(N)O[C@H](CF)[C@@H]2F)c1 [Compound I-26]	–
